Laboratory results from patent publication US9895329B1, “Formyl peptide receptor 1 antagonists and uses thereof” (Chang Gung University, priority 2016, dated 2018).

Tests used:
[1] = system: human neutrophils; assay: Elastase release from fMLF-activated human neutrophils; format: cell-based; settings: Neutrophil; fMLF (0.1 μM)/CB-activated human neutrophils; read-out: IC50, suppression of elastase release
Method: (§1) Human neutrophils were obtained in lipopolysaccharide-free conditions by means of dextran sedimentation and Ficoll centrifugation.
MeO-Suc-Ala-Ala-Pro-Val-p-nitroanilide was employed as the elastase substrate for the determination of elastase release. Briefly, after supplementation with Methoxysuccinyl-Ala-Ala-Pro-Val-p-nitroanilide (Ms-Ala-Ala-Pro-Val-pNA) (100 μM), neutrophils (6×10^5/mL) were equilibrated at 37° C. for 2 min and incubated with LS-PH at various concentrations for 5 min. Cells were activated with fMLF (0.1 μM) for 10 min in the pre-process of cytochalasin B (CB, 0.5 μg/mL) for 3 min, and changes in absorbance at 405 nm were continuously monitored to evaluate elastase release. Results are expressed as the percentage of elastase release in the drug-free control group, DMSO.

[2] = system: human neutrophils; format: cell-based; settings: 0.03 to 3 μM
Method: Cytotoxicity of LS-PH towards neutrophils was evaluated by measuring the level of lactate dehydrogenase (LDH) using a commercial kit (Promega). LDH is a cytosolic enzyme that is released only when cell membrane is disrupted (i.e., cell death), thus may be used as an indicator of cell viability. The kit measures a color change at (λmax=450 nm) when LDH reduces NAD to NADH. Cytotoxicity was expressed as the percent LDH activity obtained in cell-free medium compared to the total LDH activity. Total LDH activity was determined by lysing cells with 0.1% Triton X-100 for 30 min at 37° C.

[3] = system: human neutrophils; assay: O2•− (superoxide) production in fMLF-activated human neutrophils; format: cell-based; settings: Neutrophil; fMLF (0.1 μM)/CB-activated human neutrophils; read-out: IC50, suppression of superoxide production
Method: as §1
O2^•− production was determined based on the SOD-inhibitable reduction of ferricytochrome c. Briefly, neutrophils (6×10^5/mL) were treated with LS-PH at 37° C. at various concentrations (0.03 to 3 μM) for 5 min after being supplementing with 0.5 mg/mL ferricytochrome c and 1 mM Ca^2+. Cells were activated with formyl-L-methionyl-L-leucyl-L-phenylalanine (fMLF, 0.1 μM) for 10 min in the pre-process of cytochalasin B (CB, 1 μg/mL) for 3 min. Changes in absorbance with the reduction of ferricytochrome c at 550 nm were continuously monitored in a double-beam, six-cell positioner spectrophotometer with constant stirring (Hitachi U-3010, Tokyo, Japan). Calculations were based on the differences in the reactions with and without SOD (100 U ml^−1) divided by the extinction coefficient for the reduction of ferricytochrome c (ε=21.1 mM^−1/10 mm).

[4] = system: human neutrophils; assay: Intracellular ROS formation in fMLF-activated human neutrophils; format: cell-based
Method: as §1
After supplementation with dihydrorhodamine 123 (2 μM), neutrophils (1×10^6/mL) were equilibrated at 37° C. for 12 min and incubated with LS-PH at various concentrations for 5 min. Cells were activated with fMLF (0.1 μM) for 5 min in the pre-process of cytochalasin B (CB, 0.5 μg/mL) for 3 min. Intracellular ROS was determined by use of flow cytometer.

[5] = target: T1, FPR1 (Homo sapiens, UniProt P21462); assay: FPR1 binding assay (FNLFNYK, flow cytometry); settings: neutrophils, FNLFNYK 4 nM, 4° C.; read-out: IC50, suppression of binding of FPR1-specific ligand FNLFNYK
T1 construct: endogenous in cells; host or cells: neutrophils
T1 sequence (P21462 1-350): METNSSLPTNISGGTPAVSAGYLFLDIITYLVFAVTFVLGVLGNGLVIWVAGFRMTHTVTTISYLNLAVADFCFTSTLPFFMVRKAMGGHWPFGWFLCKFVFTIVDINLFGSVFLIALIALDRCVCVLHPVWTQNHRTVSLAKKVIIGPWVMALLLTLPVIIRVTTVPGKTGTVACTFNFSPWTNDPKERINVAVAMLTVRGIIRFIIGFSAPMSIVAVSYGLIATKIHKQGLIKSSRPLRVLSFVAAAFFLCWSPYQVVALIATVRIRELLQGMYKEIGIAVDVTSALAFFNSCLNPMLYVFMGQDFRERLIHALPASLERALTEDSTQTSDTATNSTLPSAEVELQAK
Method: Neutrophils (2×10^6 cells/ml) were incubated with various concentrations of compound LS-PH (0.03 to 3 μM) or fMLF (10 μM) at 4° C. for 5 min, and labeled with FPR1-specific ligand […] (4 nM) for 30 min. Then, the binding was determined by use of flow cytometry.

For `C=C(C)C1CCC2(C(=O)O)CC[C@]3(C)[C@H](CC[C@@H]4[C@@](C)(CCC(=O)O)[C@H](C(=C)C)CC[C@]43C)C12` (some centres unmarked) [LS-PH, (E) 3,4-Seco-4(23), 20(29)-lupadiene-3,28-dioic acid], the IC50 [1] was roughly 710 nM, the “cytotoxicity (LDH release)” value [2] was “did not exhibit detectable cytotoxicity” and the IC50 [3] was roughly 260 nM. The “suppression of fMLF-induced intracellular ROS formation” value [4] was “suppress fMLF-induced intracellular ROS formation” and the IC50 [5] was roughly 1720 nM.
